# Source: ChEMBL document CHEMBL1125328, “Design and synthesis of a C7 mimetic for the predicted gamma-turn conformation found in several constrained RGD antagonists” (J Med Chem, 1992)
# Bridge positions count the residues as written; N and C are the ends. Square brackets hold non-standard residues; d marks the D form. Peptide text beside a SMILES is read from it. NMeR = CN[C@@H](CCCNC(=N)N)C(=O)O
# Biological target: Integrin alpha-IIb/beta-3 (Homo sapiens, UniProt P05106+P08514)
# Test: Inhibition of [3H]-107260 binding to purified GPIIb/IIIa of human platelets
# Chain of Integrin alpha-IIb/beta-3 (P05106 27-788 limits assumed): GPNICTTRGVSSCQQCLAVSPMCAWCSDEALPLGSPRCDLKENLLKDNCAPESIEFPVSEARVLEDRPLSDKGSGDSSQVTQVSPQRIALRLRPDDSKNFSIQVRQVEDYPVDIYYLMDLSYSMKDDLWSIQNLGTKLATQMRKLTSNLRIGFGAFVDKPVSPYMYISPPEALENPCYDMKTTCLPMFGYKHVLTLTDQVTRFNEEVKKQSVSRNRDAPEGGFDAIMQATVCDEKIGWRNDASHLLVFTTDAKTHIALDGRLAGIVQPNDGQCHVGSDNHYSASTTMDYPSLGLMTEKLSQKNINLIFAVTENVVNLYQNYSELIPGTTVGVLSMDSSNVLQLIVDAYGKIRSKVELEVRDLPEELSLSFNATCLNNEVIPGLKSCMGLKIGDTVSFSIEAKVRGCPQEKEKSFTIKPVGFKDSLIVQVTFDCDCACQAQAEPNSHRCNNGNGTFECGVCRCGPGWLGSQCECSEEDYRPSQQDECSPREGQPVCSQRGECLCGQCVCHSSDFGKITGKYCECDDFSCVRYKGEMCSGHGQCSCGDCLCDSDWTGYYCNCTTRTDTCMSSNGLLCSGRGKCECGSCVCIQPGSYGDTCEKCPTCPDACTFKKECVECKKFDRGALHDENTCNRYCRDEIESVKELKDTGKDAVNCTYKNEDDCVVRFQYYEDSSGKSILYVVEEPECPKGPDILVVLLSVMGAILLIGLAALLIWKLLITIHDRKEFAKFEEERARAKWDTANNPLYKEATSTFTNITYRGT
# Chain of Integrin alpha-IIb/beta-3 (P08514 32-887 limits assumed): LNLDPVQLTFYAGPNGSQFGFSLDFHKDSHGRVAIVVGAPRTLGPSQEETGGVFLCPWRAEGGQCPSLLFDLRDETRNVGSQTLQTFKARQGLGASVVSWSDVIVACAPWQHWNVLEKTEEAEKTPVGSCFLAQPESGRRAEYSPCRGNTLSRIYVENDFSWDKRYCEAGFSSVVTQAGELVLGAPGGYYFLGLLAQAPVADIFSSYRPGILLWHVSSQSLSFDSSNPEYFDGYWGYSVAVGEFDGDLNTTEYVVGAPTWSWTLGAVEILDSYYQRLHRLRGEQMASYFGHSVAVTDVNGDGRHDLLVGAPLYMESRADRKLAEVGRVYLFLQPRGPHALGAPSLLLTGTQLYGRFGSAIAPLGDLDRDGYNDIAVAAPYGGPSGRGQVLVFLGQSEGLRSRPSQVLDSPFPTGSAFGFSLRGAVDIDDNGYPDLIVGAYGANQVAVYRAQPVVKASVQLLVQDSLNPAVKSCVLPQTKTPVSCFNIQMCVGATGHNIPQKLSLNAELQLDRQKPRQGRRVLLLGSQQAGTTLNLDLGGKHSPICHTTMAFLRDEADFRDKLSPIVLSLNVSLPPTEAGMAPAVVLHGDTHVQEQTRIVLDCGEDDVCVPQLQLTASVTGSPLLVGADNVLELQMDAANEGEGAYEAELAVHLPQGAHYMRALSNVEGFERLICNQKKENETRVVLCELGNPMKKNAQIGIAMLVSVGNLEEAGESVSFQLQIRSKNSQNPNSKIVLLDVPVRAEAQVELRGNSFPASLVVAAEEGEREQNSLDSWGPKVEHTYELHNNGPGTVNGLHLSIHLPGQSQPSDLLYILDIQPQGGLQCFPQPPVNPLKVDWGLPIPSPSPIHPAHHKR
# Chain of Integrin alpha-IIb/beta-3 (P08514 891-1039 limits assumed): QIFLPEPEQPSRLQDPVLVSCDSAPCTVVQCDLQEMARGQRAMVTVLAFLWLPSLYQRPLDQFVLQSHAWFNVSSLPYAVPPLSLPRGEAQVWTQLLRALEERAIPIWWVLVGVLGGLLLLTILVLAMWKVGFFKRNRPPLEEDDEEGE
row,Ki [nM],Compound
1,175,CC(=O)N[C@H]1CSSC[C@@H](C(N)=O)NC(=O)[C@H](CC(=O)O)NC(=O)CNC(=O)[C@H](CCCN=C(N)N)N(C)C1=O (Ac-C[NMeR]GDC-NH2; disulfide 1-5)
2,271,CC(=O)N(C)C(CCCNC(=N)N)C(=O)NCC1=CC(CC(=O)O)C(=O)N(c2ccccc2)CC1 (configuration not stated)
